What was measured:
[1] = test system: corn (Krasnodar 385 MV variety); experiment: Corn seed treatment with BHMPA salts: germinating power; format: in vivo; conditions: corn
Description: (§1) Experimental versions—soaking seeds in BHMPA solutions and solutions of BHMPA Ca, Mg, Na, Co, Mn, Cu, and Zn salts at 1·10^−6-1·10^−12% concentrations (doses). The studies were conducted in laboratory in Petri dishes; seed bed—two layers of filter paper. 50 seeds soaked in water (control) and in the solutions of the tested compounds (experimental) were placed into each dish. Wheat, corn, and rice seeds were exposed for one hour.
(§2) Seed germination energy and rate were calculated in percent as an arithmetic mean of the four experimental results (germination energy on the 4th day, wheat germination on the 8th day, rice and corn germination—on the 7th day). Germination was determined based on the germinating power indicators (length of the roots and sprouts and their wet and dry mass per 100 shoots).
(§3) The effect of pre-sowing seed treatment with the claimed BHMPA salts of biogenic metals was studied on winter wheat (Vershin variety), corn (Krasnodar 385 MV variety), and rice (Diamant variety).
The above data describe the seed viability only at the initial stage of germination, while the germination ability at the later stage of germination is defined by the initial germinating power. The method for the determination of the germinating power comprises measuring the height of the sprouts and primary roots, as well as the biomass and the dry mass thereof per 100 seedlings. [M. A. Kartuzova. Initial Germinating Power as Method of Biological Assessment of Seed Quality. Selection and Seed Farming, #2, 1953].

rice (Diamant variety) = experiment: Rice seed treatment with BHMPA salts: germination energy and germination rate; format: in vivo
Description: Control—Soaking Seeds in Water;
as §1
Analysis was conducted according to the government standards GOST 12038-84 “Crop seeds. Technical conditions for determining the germination energy and germination rate”, GOST 12044-93 “Crop seeds. Methods for determining disease contamination.”
as §2, §3

[2] = rice seed treatment, solution 1 · 10^−9%
[3] = seed treatment, concentration 1 · 10^−6%
[4] = seed treatment, concentration 1 · 10^−7%
[5] = seed treatment, concentration 1 · 10^−8%
[6] = seed treatment, concentration 1 · 10^−9%
[7] = seed treatment, concentration 1 · 10^−10%
[8] = seed treatment, concentration 1 · 10^−11%
[9] = seed treatment, concentration 1 · 10^−12%

Question: What does the source list for `O=P([O-])(CO)CO.O=P([O-])(CO)CO.[Ca+2]` [Ca-salt, Calcium BHMPA Salt]?
Answer: Length, root ([1]; 1·10^−9% solution): 5.2 cm; Length, root, + % to control ([1]; 1·10^−9% solution): 15.5%; Length, sprout ([1]; 1·10^−9% solution): 3.0 cm; Length, sprout, + % to control ([1]; 1·10^−9% solution): 15%; Mass, dry, root ([1]; 1·10^−9% solution): 1.26 g/100 plantlings; Mass, dry, root, + % to control ([1]; 1·10^−9% solution): 13.5%; Mass, dry, sprout ([1]; 1·10^−9% solution): 0.96 g/100 plantlings; Mass, dry, sprout, + % to control ([1]; 1·10^−9% solution): 39%; Mass, wet, root ([1]; 1·10^−9% solution): 9.18 g/100 plantlings; Mass, wet, root, + % to control ([1]; 1·10^−9% solution): 22.5%; Mass, wet, sprout ([1]; 1·10^−9% solution): 4.99 g/100 plantlings; Mass, wet, sprout, + % to control ([1]; 1·10^−9% solution): 12%; Length, root ([1]; 1·10^−10% solution): 5.4 cm; Length, root, + % to control ([1]; 1·10^−10% solution): 20%; Length, sprout ([1]; 1·10^−10% solution): 3.2 cm; Length, sprout, + % to control ([1]; 1·10^−10% solution): 23%; Mass, dry, root ([1]; 1·10^−10% solution): 1.34 g/100 plantlings; Mass, dry, root, + % to control ([1]; 1·10^−10% solution): 21%; Mass, dry, sprout ([1]; 1·10^−10% solution): 1.23 g/100 plantlings; Mass, dry, sprout, + % to control ([1]; 1·10^−10% solution): 78%; Mass, wet, root ([1]; 1·10^−10% solution): 9.82 g/100 plantlings; Mass, wet, root, + % to control ([1]; 1·10^−10% solution): 31%; Mass, wet, sprout ([1]; 1·10^−10% solution): 5.61 g/100 plantlings; Mass, wet, sprout, + % to control ([1]; 1·10^−10% solution): 26%; Length, root ([1]; 1·10^−11% solution): 5.2 cm; Length, root, + % to control ([1]; 1·10^−11% solution): 15.5%; Length, sprout ([1]; 1·10^−11% solution): 2.9 cm; Length, sprout, + % to control ([1]; 1·10^−11% solution): 11.5%; Mass, dry, root ([1]; 1·10^−11% solution): 1.30 g/100 plantlings; Mass, dry, root, + % to control ([1]; 1·10^−11% solution): 17%; Mass, dry, sprout ([1]; 1·10^−11% solution): 1.09 g/100 plantlings; Mass, dry, sprout, + % to control ([1]; 1·10^−11% solution): 58%; Mass, wet, root ([1]; 1·10^−11% solution): 9.44 g/100 plantlings; Mass, wet, root, + % to control ([1]; 1·10^−11% solution): 26%; Mass, wet, sprout ([1]; 1·10^−11% solution): 5.15 g/100 plantlings; Mass, wet, sprout, + % to control ([1]; 1·10^−11% solution): 15%; Length, root ([1]; 1·10^−12% solution): 4.6 cm; Length, root, + % to control ([1]; 1·10^−12% solution): 2%; Length, sprout ([1]; 1·10^−12% solution): 2.7 cm; Length, sprout, + % to control ([1]; 1·10^−12% solution): 4%; Mass, dry, root ([1]; 1·10^−12% solution): 1.23 g/100 plantlings; Mass, dry, root, + % to control ([1]; 1·10^−12% solution): 11%; Mass, dry, sprout ([1]; 1·10^−12% solution): 0.81 g/100 plantlings; Mass, dry, sprout, + % to control ([1]; 1·10^−12% solution): 17%; Mass, wet, root ([1]; 1·10^−12% solution): 8.65 g/100 plantlings; Mass, wet, root, + % to control ([1]; 1·10^−12% solution): 15%; Mass, wet, sprout ([1]; 1·10^−12% solution): 4.73 g/100 plantlings; Mass, wet, sprout, + % to control ([1]; 1·10^−12% solution): 6%; Germination energy, % (rice (Diamant variety); [2]): 86.3%; Germination rate, % (rice (Diamant variety); [2]): 93.3%; Germination energy (rice (Diamant variety); rice, 1·10^−10% solution): 85.0%; Germination rate (rice (Diamant variety); rice, 1·10^−10% solution): 92.0%; Germination energy (rice (Diamant variety); [3]): 75.9%; Germination rate (rice (Diamant variety); [3]): 81.0%; Germination energy (rice (Diamant variety); [4]): 76.0%; Germination rate (rice (Diamant variety); [4]): 83.3%; Germination energy (rice (Diamant variety); [5]): 79.3%; Germination rate (rice (Diamant variety); [5]): 85.0%; Germination energy (rice (Diamant variety); [6]): 82.0%; Germination rate (rice (Diamant variety); [6]): 87.0%; Germination energy (rice (Diamant variety); [7]): 85.0%; Germination rate (rice (Diamant variety); [7]): 92.0%; Germination energy (rice (Diamant variety); [8]): 83.3%; Germination rate (rice (Diamant variety); [8]): 89.3%; Germination energy (rice (Diamant variety); [9]): 78.3%; Germination rate (rice (Diamant variety); [9]): 84.3%

Reference: patent US10781224B2, “Bis(oxymethyl)phosphinic acid and biogenic metal salts thereof as regulators of plant growth and development” (priority 2016, dated 2020)
